# Data reported in US20030166609A1, “Medicine containing polysacccharide substances for activating apoptosis” (priority 2000, published 2003).
# Assays:
# Assay type in all cases: cell-based, human
# [1] = system: Fas receptors at the surface of Hep-G2 liver cells; test: Fas receptors at the surface of Hep-G2 liver cells, fluorescence by flow cytometry; conditions: for Fluorescence Ratio: vs control
# Experimental: Work was carried out on a culture of liver cells named Hep-G2 (marketed by ECACC (European collection of human genetic cell lines)).
# The same procedure is carried out as in example 1, replacing the T lymphocytes of the Jurkat type with Hep-G2 liver cells.
# The presence of Fas receptors at the surface of the cells was measured by fluorescence, as in example 1, and the results obtained are expressed as in example 1, in the form of FIGS. 9 to 12. […]
# For this, the same procedure as in example 1 was carried out.
# [2] = system: TNF alpha receptors (p55 TNF receptor) on Jurkat-type cells; test: TNF alpha receptors at the surface of Jurkat-type cells, fluorescence by flow cytometry
# Experimental: In this example, the effect of dextran sulfate at a concentration of 0.1 mg/ml on the increase in the number of TNF alpha receptors on Jurkat-type cells was measured.
# The medium used for culturing the Jurkat-type cells is that marketed by the company Life Technologies under the name “RPMI 1640 medium”; this medium is described by Moore et al. in the publication “A.M.A.” 199, 519 (1967).
# 10^6 T lymphocytes are suspended in 5 ml of this medium. The culturing was carried out in an incubator at a temperature of 37° C. and in an atmosphere containing 5% CO2. After incubation for 24 hours, the cells multiplied to reach 2×10^6 cells.
# (§1) These cells are recovered by centrifugation, and are washed in an isotonic PBS buffer. A further incubation is then carried out in 1 ml of the abovementioned medium at 4° C. and in an atmosphere containing 5% CO2, for 45 minutes in the presence of an anti-human p55 TNF receptor, clone MR1-2, ref. MON9062 produced in mice by Genzyme SA, diluted to 1/50 in PBS containing 1% of bovine serum albumin (BSA).
# The cells are recovered and are washed with the isotonic PBS buffer. A further incubation is carried out with an antibody against mouse immunoglobulins (IgGs) (produced in the goat) coupled to fluorescein isothiocyanate, diluted to 1/50 in PBS containing 1% of BSA. […]
# The influence of the dextran sulfate is determined by introducing 0.1 mg of dextran sulfate per ml into the culture medium.
# The presence of TNF alpha receptors at the surface of the cells was measured by fluorescence as in the previous examples.
# In FIG. 17, in which the Y-axis represents the number (to within one multiplication factor) of TNF alpha receptors at the surface of the cells, and in which the X-axis represents the intensity of fluorescence (arbitrary units), the Gaussian distribution of the fluorescence for the control sample (curve T1) and for the sample which was incubated in the presence of 0.1 mg/ml of dextran sulfate (curve C17) is represented in the form of a curve.
# [3] = system: Fas receptors at the surface of T lymphocytes (of the Jurkat type); test: Fas receptors at the surface of Jurkat-type T lymphocytes, fluorescence by flow cytometry
# Experimental: Work was carried out on a culture of immortalized human cells consisting of T lymphocytes (of the Jurkat type).
# The medium used for culturing the Jurkat-type cells is that marketed by the company Life Technologies under the name “RPMI 1640 Medium”; this medium is described by Moore et al. in the publication “A.M.A.” 199, 519 (1967).
# 10^6 T lymphocytes of the Jurkat type were suspended in 5 ml of this medium. The culturing was carried out in an incubator at a temperature of 37° C. and in an atmosphere containing 5% CO2.
# After incubation for 24 hours, the cells multiplied to reach 2×10^6 cells.
# as §1, with “incubation of these 2×10^6 cells” for “incubation”, “anti-Fas” for “anti-human p55 TNF”, “sold under the catalog number 05-201” for “clone MR1-2, ref. MON9062 produced in mice”, “Euromedex,” for “Genzyme SA,”
# At the end of this incubation, the cells are collected and are washed with the isotonic PBS buffer. After washing, a further incubation of the cells is carried out for 45 minutes at 4° C. in the presence of an antibody against hamster immunoglobulins (IgGs) (produced in the goat) which is coupled to fluorescein isothiocyanate, diluted to 1/50 in PBS containing 1% of BSA (marketed by Euromedex, No. AP128F).
# Controls were prepared by incubating the T lymphocytes of the Jurkat type only with the second antibody (goat anti-hamster IgG coupled to fluorescein isothio-cyanate).
# The increase in the number of Fas receptors at the surface of the cells, under the action of dextran sulfate, is then determined.
# Consequently, the fluorescence of the cells (which is proportional to the number of receptors present at the surface) is determined in the absence of dextran sulfate and in the presence of dextran sulfate for a number of solutions at various concentrations. The ratio of the fluorescence in the absence of dextran sulfate to the fluorescence with dextran sulfate is then calculated. In the following text, the result of this calculation is called “ratio”.
# Various assays are carried out by introducing into the culture medium, at time t=0 of the experiment, dextran sulfate at the following doses: 0.2 mg/ml, 0.1 mg/ml, 0.02 mg/ml and 0.002 mg/ml; the dextran sulfate is that marketed by the company Sigma.
# After various times of incubation with the dextran sulfate, the presence of Fas receptors at the surface of the cells is detected by fluorescence. This fluorescence is induced by the fluorescein isothio-cyanate coupled to the anti-Fas receptor antibodies which are attached to the Fas receptors, and was measured by passing a cell sample containing 10^4 cells through a device such as those which function by flow cytometry, in this case that marketed by the company Beckton Dickinson under the name “FACS Scan Flow Cytometer”. The intensity of the fluorescence, which is expressed in arbitrary units, therefore depends on the number of Fas receptors present at the surface of the cells making up the sample.
# For each sample, the curve representing the variation in fluorescence as a function of said number of cells having receptors at their surface is constructed on a graph on which the fluorescence (arbitrary units) is recorded on the X axis and the number of cells (to within one multiplication factor) having receptors at their surface is recorded on the Y axis; this curve reflects a Gaussian-type distribution of the fluorescence.
# The various assays carried out make it possible to classify the cell populations as a function of the fluorescence, i.e. as a function of the number of receptors present at the surface of the cells.
# The different maximum fluorescence values for each assay, which reflect the different numbers of receptors present at the surface, depend on the active products used in the various assays. […]
# [4] = Hep-G2, 0.02 mg/ml dextran sulfate (0.2 mg/ml given in source), 6 h (curve C13)
# [5] = Hep-G2, 0.02 mg/ml dextran sulfate (0.2 mg/ml given in source), 24 h (curve C14)
# [6] = Hep-G2, 0.02 mg/ml dextran sulfate (0.2 mg/ml given in source), 48 h (curve C15)
# [7] = Hep-G2, 0.02 mg/ml dextran sulfate (0.2 mg/ml given in source), 72 h (curve C16)
# [8] = Hep-G2, dextran sulfate 0.002 mg/ml (curve C12)
# [9] = Hep-G2, dextran sulfate 0.02 mg/ml (curve C11)
# [10] = Hep-G2, dextran sulfate 0.1 mg/ml (curve C10)
# [11] = Hep-G2, dextran sulfate 0.2 mg/ml (curve C9)
substance,measurement,setting,value
dextran sulfate,minimum concentration for increase in the number of Fas receptors at the cell surface,[1]; Hep-G2,0.02 mg/mL
same,optimum concentration for increase in the number of Fas receptors at the cell surface,[1]; Hep-G2,0.1 mg/mL
same,Fluorescence Value measured (peak of curve),[1]; [4],40 arbitrary units
same,Fluorescence Ratio,[1]; [4],1.6
same,Fluorescence Value measured (peak of curve),[1]; [5],50 arbitrary units
same,Fluorescence Ratio,[1]; [5],2
same,Fluorescence Value measured (peak of curve),[1]; [6],70 arbitrary units
same,Fluorescence Ratio,[1]; [6],2.8
same,Fluorescence Value measured (peak of curve),[1]; [7],50 arbitrary units
same,Fluorescence Ratio,[1]; [7],2
same,incubation time of the maximum of the increase in the number of Fas receptors at the cell surface,"[1]; Hep-G2, dextran sulfate",48 h
same,Fluorescence Value measured (peak of curve),[1]; [8],60 arbitrary units
same,Fluorescence Ratio,[1]; [8],1
same,Fluorescence Value measured (peak of curve),[1]; [9],120 arbitrary units
same,Fluorescence Ratio,[1]; [9],2
same,Fluorescence Value measured (peak of curve),[1]; [10],140 arbitrary units
same,Fluorescence Ratio,[1]; [10],2.3
same,Fluorescence Value measured (peak of curve),[1]; [11],160 arbitrary units
same,Fluorescence Ratio,[1]; [11],2.7
same,Fluorescence Value measured (peak of curve),"[2]; TNF alpha receptors, dextran sulfate 0.1 mg/ml (curve C17)",200 arbitrary units
same,Fluorescence Ratio,"[2]; TNF alpha receptors, dextran sulfate 0.1 mg/ml, vs control",1.14
same,increase in the number of TNF alpha receptors at the surface,"[2]; dextran sulfate 0.1 mg/ml, called weak",10%
same,incubation time of the maximum of the increase in the number of Fas receptors at the cell surface,[3]; 0.02 mg/ml dextran sulfate,48 h
same,Fluorescence Value measured (peak of curve),"[3]; 0.02 mg/ml dextran sulfate, 6 h (curve C41)",100 arbitrary units
same,Fluorescence Ratio,"[3]; 0.02 mg/ml dextran sulfate, 6 h (curve C41), vs control",2
same,Fluorescence Value measured (peak of curve),"[3]; 0.02 mg/ml dextran sulfate, 24 h (curve C42)",120 arbitrary units
same,Fluorescence Ratio,"[3]; 0.02 mg/ml dextran sulfate, 24 h (curve C42), vs control",2.4
same,Fluorescence Value measured (peak of curve),"[3]; 0.02 mg/ml dextran sulfate, 48 h (curve C43)",150 arbitrary units
same,Fluorescence Ratio,"[3]; 0.02 mg/ml dextran sulfate, 48 h (curve C43), vs control",3
same,Fluorescence Value measured (peak of curve),"[3]; 0.02 mg/ml dextran sulfate, 72 h (curve C44)",80 arbitrary units
same,Fluorescence Ratio,"[3]; 0.02 mg/ml dextran sulfate, 72 h (curve C44), vs control",1.6
same,minimum concentration for increase in the number of Fas receptors at the cell surface,"[3]; at greater dilution effect too diminished, higher concentration does not enhance",0.02 mg/mL
same,Fluorescence Value measured (peak of curve),[3]; dextran sulfate 0.002 mg/ml (curve C5),90 arbitrary units
same,Fluorescence Ratio,"[3]; dextran sulfate 0.002 mg/ml (curve C5), vs control",1.13
same,Fluorescence Value measured (peak of curve),[3]; dextran sulfate 0.02 mg/ml (curve C4),200 arbitrary units
same,Fluorescence Ratio,"[3]; dextran sulfate 0.02 mg/ml (curve C4), vs control",2.50
same,Fluorescence Value measured (peak of curve),[3]; dextran sulfate 0.1 mg/ml (curve C3),250 arbitrary units
same,Fluorescence Ratio,"[3]; dextran sulfate 0.1 mg/ml (curve C3), vs control",3.13
same,Fluorescence Value measured (peak of curve),[3]; dextran sulfate 0.2 mg/ml (curve C2),250 arbitrary units
same,Fluorescence Ratio,"[3]; dextran sulfate 0.2 mg/ml (curve C2), vs control without dextran sulfate",3.13
iota-carrageenan [Ic],incubation time of the maximum of the increase in the number of Fas receptors at the cell surface,[3]; Ic 0.2 mg/ml,24 h
same,Fluorescence Value measured (peak of curve),"[3]; Ic 0.2 mg/ml, 6 h",80 arbitrary units
same,Fluorescence Ratio,"[3]; Ic 0.2 mg/ml, 6 h, vs control",1.3
same,Fluorescence Value measured (peak of curve),"[3]; Ic 0.2 mg/ml, 24 h",180 arbitrary units
same,Fluorescence Ratio,"[3]; Ic 0.2 mg/ml, 24 h, vs control",2.7
same,Fluorescence Value measured (peak of curve),"[3]; Ic 0.2 mg/ml, 48 h",125 arbitrary units
same,Fluorescence Ratio,"[3]; Ic 0.2 mg/ml, 48 h, vs control",2.1
same,Fluorescence Value measured (peak of curve),"[3]; Ic 0.2 mg/ml, 72 h",100 arbitrary units
same,Fluorescence Ratio,"[3]; Ic 0.2 mg/ml, 72 h, vs control",1.7
